Reference: PubChem BioAssay AID1259407 (Chemical Carcinogenesis Research Information System (CCRIS), 2018)
Calls of active or inactive are those of the source. The rule behind the calls is not given here.

Test system: CCRIS mutagenicity, Ames/micronucleus/aberration tests
Assay: CCRIS mutagenicity studies
[1] = Test System: AMES SALMONELLA TYPHIMURIUM, Strain/Indicator: TA100, Metabolic Activation: NONE, Method: STANDARD PLATE
[2] = Test System: AMES SALMONELLA TYPHIMURIUM, Strain/Indicator: TA97, Metabolic Activation: NONE, Method: PREINCUBATION
[3] = Test System: AMES SALMONELLA TYPHIMURIUM, Strain/Indicator: TA97, Metabolic Activation: RAT, LIVER, S-9, AROCLOR 1254 (10 OR 30%), Method: PREINCUBATION
[4] = Test System: AMES SALMONELLA TYPHIMURIUM, Strain/Indicator: TA98, Metabolic Activation: HAMSTER, LIVER, S-9, AROCLOR 1254 (10 OR 30%), Method: PREINCUBATION
[5] = Test System: AMES SALMONELLA TYPHIMURIUM, Strain/Indicator: TA98, Metabolic Activation: NONE, Method: PREINCUBATION
[6] = Test System: AMES SALMONELLA TYPHIMURIUM, Strain/Indicator: TA98, Metabolic Activation: RAT, LIVER, S-9, AROCLOR 1254 (10 OR 30%), Method: PREINCUBATION
[7] = Test System: AMES SALMONELLA TYPHIMURIUM, Strain/Indicator: TA100, Metabolic Activation: HAMSTER, LIVER, S-9, AROCLOR 1254 (10 OR 30%), Method: PREINCUBATION
[8] = Test System: AMES SALMONELLA TYPHIMURIUM, Strain/Indicator: TA100, Metabolic Activation: NONE, Method: PREINCUBATION
[9] = Test System: AMES SALMONELLA TYPHIMURIUM, Strain/Indicator: TA100, Metabolic Activation: RAT, LIVER, S-9, AROCLOR 1254 (10 OR 30%), Method: PREINCUBATION
[10] = Test System: AMES SALMONELLA TYPHIMURIUM, Strain/Indicator: TA1535, Metabolic Activation: HAMSTER, LIVER, S-9, AROCLOR 1254 (10 OR 30%), Method: PREINCUBATION
[11] = Test System: AMES SALMONELLA TYPHIMURIUM, Strain/Indicator: TA1535, Metabolic Activation: NONE, Method: PREINCUBATION

Measured: mutagenic call

CC1(C)C(C=C(Cl)Cl)C1C(=O)OCc1cccc(Oc2ccccc2)c1 (stereo unspecified)
active: Test System: AMES SALMONELLA TYPHIMURIUM, Strain/Indicator: TA98, Metabolic Activation: NONE active; positive
inactive: Test System: AMES SALMONELLA TYPHIMURIUM, Strain/Indicator: TA97A, Metabolic Activation: NONE, Method: STANDARD PLATE inactive; negative | Test System: AMES SALMONELLA TYPHIMURIUM, Strain/Indicator: TA97A, Metabolic Activation: RAT, CECAL CELL FREE EXTRACT, Method: STANDARD PLATE inactive; negative | Test System: AMES SALMONELLA TYPHIMURIUM, Strain/Indicator: TA97A, Metabolic Activation: RAT, LIVER, S-9, AROCLOR 1254, Method: STANDARD PLATE inactive; negative | Test System: AMES SALMONELLA TYPHIMURIUM, Strain/Indicator: TA98, Metabolic Activation: NONE, Method: MICROSUSPENSION inactive; negative | Test System: AMES SALMONELLA TYPHIMURIUM, Strain/Indicator: TA98, Metabolic Activation: NONE, Method: STANDARD PLATE inactive; negative | Test System: AMES SALMONELLA TYPHIMURIUM, Strain/Indicator: TA98, Metabolic Activation: RAT, CECAL CELL FREE EXTRACT, Method: STANDARD PLATE inactive; negative | Test System: AMES SALMONELLA TYPHIMURIUM, Strain/Indicator: TA98, Metabolic Activation: RAT, LIVER, S-9, AROCLOR 1254, Method: STANDARD PLATE inactive; negative | Test System: AMES SALMONELLA TYPHIMURIUM, Strain/Indicator: TA98, Metabolic Activation: RAT, LIVER, S-9, POLYCHLORINATED BIPHENYLS inactive; negative | Test System: AMES SALMONELLA TYPHIMURIUM, Strain/Indicator: TA98, Metabolic Activation: S-9, Method: MICROSUSPENSION inactive; negative | Test System: AMES SALMONELLA TYPHIMURIUM, Strain/Indicator: TA100 inactive; negative | Test System: AMES SALMONELLA TYPHIMURIUM, Strain/Indicator: TA100, Metabolic Activation: NONE inactive; negative | Test System: AMES SALMONELLA TYPHIMURIUM, Strain/Indicator: TA100, Metabolic Activation: NONE, Method: MICROSUSPENSION inactive; negative | [1] inactive; negative | Test System: AMES SALMONELLA TYPHIMURIUM, Strain/Indicator: TA100, Metabolic Activation: RAT, CECAL CELL FREE EXTRACT, Method: STANDARD PLATE inactive; negative | Test System: AMES SALMONELLA TYPHIMURIUM, Strain/Indicator: TA100, Metabolic Activation: RAT, LIVER, S-9, AROCLOR 1254, Method: STANDARD PLATE inactive; negative | Test System: AMES SALMONELLA TYPHIMURIUM, Strain/Indicator: TA100, Metabolic Activation: S-9, Method: MICROSUSPENSION inactive; negative | Test System: AMES SALMONELLA TYPHIMURIUM, Strain/Indicator: TA1535, Metabolic Activation: NONE, Method: STANDARD PLATE inactive; negative | Test System: AMES SALMONELLA TYPHIMURIUM, Strain/Indicator: TA1535, Metabolic Activation: RAT, LIVER, S-9, AROCLOR 1254, Method: STANDARD PLATE inactive; negative | Test System: AMES SALMONELLA TYPHIMURIUM, Strain/Indicator: TA1537, Metabolic Activation: NONE, Method: STANDARD PLATE inactive; negative | Test System: AMES SALMONELLA TYPHIMURIUM, Strain/Indicator: TA1537, Metabolic Activation: RAT, LIVER, S-9, AROCLOR 1254, Method: STANDARD PLATE inactive; negative | Test System: CHINESE HAMSTER V-79, Strain/Indicator: V-79/6-THIOGUANINE, Metabolic Activation: NONE, Method: STANDARD PLATE inactive; negative | Test System: CHINESE HAMSTER V-79, Strain/Indicator: V-79/6-THIOGUANINE, Metabolic Activation: RAT HEPATOCYTES, Method: STANDARD PLATE inactive; negative | Test System: CHINESE HAMSTER V-79, Strain/Indicator: V-79/OUABAIN, Metabolic Activation: NONE, Method: STANDARD PLATE inactive; negative | Test System: CHINESE HAMSTER V-79, Strain/Indicator: V-79/OUABAIN, Metabolic Activation: RAT HEPATOCYTES, Method: STANDARD PLATE inactive; negative | Test System: E. COLI, Strain/Indicator: WP2, Metabolic Activation: NONE, Method: STANDARD PLATE inactive; negative | Test System: E. COLI, Strain/Indicator: WP2, Metabolic Activation: RAT, LIVER, S-9, AROCLOR 1254, Method: STANDARD PLATE inactive; negative

O=C/C(Br)=C(/Br)C(=O)O
active: [1] active; positive
inactive: End Point: In vitro micronucleus, Test System: Human lymphocytes, Metabolic Activation: None inactive; negative

CC(C)(C)OOC(C)(C)CCC(C)(C)OOC(C)(C)C
inactive: Test System: AMES SALMONELLA TYPHIMURIUM, Strain/Indicator: TA97, Metabolic Activation: HAMSTER, LIVER, S-9, AROCLOR 1254 (10 OR 30%), Method: PREINCUBATION inactive; negative | [2] inactive; negative | [3] inactive; negative | [4] inactive; negative | [5] inactive; negative | [6] inactive; negative | [7] inactive; negative | [8] inactive; negative | [9] inactive; negative | [10] inactive; negative | [11] inactive; negative | Test System: AMES SALMONELLA TYPHIMURIUM, Strain/Indicator: TA1535, Metabolic Activation: RAT, LIVER, S-9, AROCLOR 1254 (10 OR 30%), Method: PREINCUBATION inactive; negative

[Cl][Sn]([Cl])([Cl])[c]1ccccc1
inactive: Test System: AMES SALMONELLA TYPHIMURIUM, Strain/Indicator: TA98, Metabolic Activation: NONE, Method: SUSPENSION/PLATE inactive; negative | Test System: AMES SALMONELLA TYPHIMURIUM, Strain/Indicator: TA100, Metabolic Activation: NONE, Method: SUSPENSION/PLATE inactive; negative

Nc1cc([N+](=O)[O-])cc(S(=O)(=O)O)c1O
inactive: Test System: AMES SALMONELLA TYPHIMURIUM, Strain/Indicator: TA97, Metabolic Activation: HAMSTER, LIVER, S-9, AROCLOR 1254 (10%), Method: PREINCUBATION inactive; negative | Test System: AMES SALMONELLA TYPHIMURIUM, Strain/Indicator: TA97, Metabolic Activation: HAMSTER, LIVER, S-9, AROCLOR 1254 (30%), Method: PREINCUBATION inactive; negative | [2] inactive; negative | [3] inactive; negative | [4] inactive; negative | [5] inactive; negative | [6] inactive; negative | [7] inactive; negative | [8] inactive; negative | [9] inactive; negative | [10] inactive; negative | [11] inactive; negative | Test System: AMES SALMONELLA TYPHIMURIUM, Strain/Indicator: TA1535, Metabolic Activation: RAT, LIVER, S-9, AROCLOR 1254 (10%), Method: PREINCUBATION inactive; negative
